Reference: paper PMC7615677 (Science translational medicine, 2023)
Read-outs that look alike come from different tables or passages of the source.

How the values were obtained:
[1] = Compartmental PK modelling and repeat-dose simulation; design: species or system mice; conditions: for AUC: read-out: AUC24 ss
Method: To support pharmacokinetic/pharmacodynamic (PKPD) analysis, data in mice and hamsters were also analyzed by compartmental modeling using Phoenix WinNonlin (version 8.2; Certara, Princeton, NJ). For each dose level, an extravascular dosing, single compartment disposition model was fit to the combined Day 1/Day 5 repeat dose plasma data. The model was parameterized with a single volume term (V/F), and with first order absorption (K01) and elimination (K10) rate constants. Initial values for the parameter estimates were obtained by fitting of the model to the Day 1 data at the lowest dose level only, and the same initial values were used across the dose range. Experimental data used in model fitting were the mean concentration-time profiles and the average dose administered to each group. The weighting scheme (1/Y2 for mouse and 1/Y for hamster) was selected based on goodness of fit of the peak region of the experimental profiles. Parameter estimates obtained through fitting were used to simulate full repeat-dose plasma concentration-time profiles with both once-daily and twice-daily (dosing at […]) administration at each dose level and treatment duration used in the efficacy studies.

[2] = In vitro cytotoxicity assay; type: cell-based; conditions: human, HFF human foreskin fibroblasts
[3] = system: L. infantum; assay: PK/PD analysis of liver burden versus cumulative unbound AUC; type: in vivo, mice; conditions: Mouse – L. infantum; estimated using the fitted parameters
Source text: To determine the correlation between the pharmacokinetic (PK) and pharmacodynamic (PD) data, repeat dose profiles in mice and hamsters following single and twice daily dosing were simulated using the fitted parameters.
Other parameters were less well correlated to efficacy, presumably given that none reflect the cumulative exposure profile with an extended treatment regimen. […] Results for mice infected with L. donovani were similar to those for L. infantum (Table S15).

[4] = mice, 12.5 mg/kg bid, 5 days, simulated
[5] = mice, 12.5 mg/kg qd, 5 days, simulated
[6] = mice, 25 mg/kg bid, 5 days, simulated
[7] = mice, 25 mg/kg qd, 5 days, simulated
[8] = mouse, plasma, po, 3.125 mg/kg, mice, 3.125 mg/kg bid, 10 days, simulated
[9] = mouse, plasma, po, 12.5 mg/kg, mice, 12.5 mg/kg bid, 5 days, simulated
[10] = mouse, plasma, po, 12.5 mg/kg, mice, 12.5 mg/kg qd, 5 days, simulated
[11] = mouse, plasma, po, 25 mg/kg, mice, 25 mg/kg qd, 5 days, simulated
[12] = mouse, plasma, po, Mice, 3.6 mg/kg, fitted
[13] = mouse, plasma, po, Mice, 7.1 mg/kg, fitted
[14] = mouse, plasma, po, Mice, 12.7 mg/kg, fitted
[15] = mouse, plasma, po, Mice, 25 mg/kg, fitted

For `Cc1[nH]c2nc(N)nc(C)c2c1-c1ccc(C#N)c2c1OCO2` [DNDI-6174], the Cmin [1, 4] was 520 ng/mL, the “Cmin (unbound)” value [1, 4] was 62 ng/mL and the “Cum AUC” value [1, 4] was 410000 ng·h/mL. For the same molecule, the “Cum AUC (unbound)” value [1, 4] was 49200 ng·h/mL, the “AUC24 ss (unbound)” value [1, 5] was 4920 ng·h/mL and the Cav ss [1, 5] was 1710 ng/mL. The “Cav ss (unbound)” value [1, 5] was 205 ng/mL, the “Cmax (unbound)” value [1, 5] was 608 ng/mL and the Cmin [1, 5] was 80 ng/mL. For the same molecule, the “Cmin (unbound)” value [1, 5] was 10 ng/mL, the “Cum AUC (unbound)” value [1, 5] was 24600 ng·h/mL and the “AUC24 ss (unbound)” value [1, 6] was 15800 ng·h/mL. For the same molecule, the Cav ss [1, 6] was 5470 ng/mL, the “Cav ss (unbound)” value [1, 6] was 657 ng/mL and the Cmax [1, 6] was 11700 ng/mL. The “Cmax (unbound)” value [1, 6] was 1410 ng/mL, the Cmin [1, 6] was 1140 ng/mL and the “Cmin (unbound)” value [1, 6] was 137 ng/mL. For the same molecule, the “Cum AUC” value [1, 6] was 657000 ng·h/mL, the “Cum AUC (unbound)” value [1, 6] was 78800 ng·h/mL and the “AUC24 ss (unbound)” value [1, 7] was 7880 ng·h/mL. The Cav ss [1, 7] was 2740 ng/mL, the “Cav ss (unbound)” value [1, 7] was 328 ng/mL and the “Cmax (unbound)” value [1, 7] was 1080 ng/mL. For the same molecule, the Cmin [1, 7] was 251 ng/mL, the “Cmin (unbound)” value [1, 7] was 30 ng/mL and the “Cum AUC (unbound)” value [1, 7] was 39400 ng·h/mL. It also gave a Cmax at 10 days [1, 8] of 820 ng/mL, an AUC [1, 8] of 8410 ng·h/mL and an AUC at 10 days ([1]; mouse, plasma, po, 3.125 mg/kg, mice, 3.125 mg/kg bid, 10 days, simulated, read-out: Cum AUC) of 84100 ng·h/mL. The Cmax ([1]; mouse, plasma, po, 3.6 mg/kg, Mice, 3.6 mg/kg, fitted, read-out: Cmax) was 813 ng/mL, the Cmax ([1]; mouse, plasma, po, 7.1 mg/kg, Mice, 7.1 mg/kg, fitted, read-out: Cmax) was 2190 ng/mL and the Cmax at 5 days [1, 9] was 6500 ng/mL. The AUC [1, 9] was 82000 ng·h/mL, the AUC at 5 days ([1]; mouse, plasma, po, 12.5 mg/kg, mice, 12.5 mg/kg bid, 5 days, simulated, read-out: Cum AUC) was 410000 ng·h/mL and the Cmax at 5 days [1, 10] was 5070 ng/mL. The AUC [1, 10] was 41000 ng·h/mL, the AUC at 5 days ([1]; mouse, plasma, po, 12.5 mg/kg, mice, 12.5 mg/kg qd, 5 days, simulated, read-out: Cum AUC) was 205000 ng·h/mL and the Cmax ([1]; mouse, plasma, po, 12.7 mg/kg, Mice, 12.7 mg/kg, fitted, read-out: Cmax) was 5100 ng/mL. It also gave a Cmax ([1]; mouse, plasma, po, 25 mg/kg, Mice, 25 mg/kg, fitted, read-out: Cmax) of 8830 ng/mL, a Cmax at 5 days ([1]; mouse, plasma, po, 25 mg/kg, mice, 25 mg/kg bid, 5 days, simulated) of 11700 ng/mL and an AUC at 5 days ([1]; mouse, plasma, po, 25 mg/kg, mice, 25 mg/kg bid, 5 days, simulated, read-out: Cum AUC) of 657000 ng·h/mL. The Cmax at 5 days [1, 11] was 9030 ng/mL, the AUC [1, 11] was 65700 ng·h/mL and the AUC at 5 days ([1]; mouse, plasma, po, 25 mg/kg, mice, 25 mg/kg qd, 5 days, simulated, read-out: Cum AUC) was 328000 ng·h/mL. The AUC(0-inf) [1, 12] was 4840 ng·h/mL, the CL/F [1, 12] was 12.4 mL/min/kg and the AUC(0-inf) [1, 13] was 14800 ng·h/mL. The CL/F [1, 13] was 7.98 mL/min/kg, the AUC(0-inf) [1, 14] was 41700 ng·h/mL and the CL/F [1, 14] was 5.08 mL/min/kg. The AUC(0-inf) [1, 15] was 65700 ng·h/mL, the CL/F [1, 15] was 6.35 mL/min/kg and the CC50 [2] was greater than 64 µM. For the same molecule, the “unbound ED95” value [3] was 27.
